Broadly, the Ki is a dissociation constant, usually derived from enzyme kinetics or from competition with a known ligand.

In one test the target is Carbonic anhydrase 9 (Homo sapiens, UniProt Q16790). Description: Inhibition of human recombinant carbonic anhydrase 9 preincubated for 10 mins by CO2 hydration stopped-flow assay.
The next test has as its target Carbonic anhydrase 12 (Homo sapiens, UniProt O43570). Description: Inhibition of human recombinant carbonic anhydrase 12 preincubated for 10 mins by CO2 hydration stopped-flow assay.

Carbonic anhydrase 12, sequence (O43570 whole entry): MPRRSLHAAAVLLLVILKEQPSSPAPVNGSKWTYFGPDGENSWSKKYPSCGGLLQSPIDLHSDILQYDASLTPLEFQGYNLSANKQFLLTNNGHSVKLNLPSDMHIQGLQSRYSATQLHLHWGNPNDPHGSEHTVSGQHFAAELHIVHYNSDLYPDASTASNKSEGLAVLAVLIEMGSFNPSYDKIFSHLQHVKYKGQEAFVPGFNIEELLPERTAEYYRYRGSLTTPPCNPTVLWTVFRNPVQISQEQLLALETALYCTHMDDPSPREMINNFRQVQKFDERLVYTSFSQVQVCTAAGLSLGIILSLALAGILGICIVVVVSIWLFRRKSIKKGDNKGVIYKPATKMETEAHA

On to `COc1ccc(CC(=O)Nc2ccc(S(N)(=O)=O)cc2F)cc1`, for which, at Carbonic anhydrase 9, the Ki worked out at 1.8 nM.

In the case of `NS(=O)(=O)c1ccc(NC(=O)Cc2ccccc2Br)c(F)c1`, the Ki at Carbonic anhydrase 9 was 1.6 nM.

`NS(=O)(=O)c1nnc(NC(=O)Cc2ccc(Cl)cc2)s1`: the Ki on Carbonic anhydrase 9 is 1.3 nM.

Regarding `NS(=O)(=O)c1nnc(NC(=O)Cc2ccccc2Br)s1`, the Ki at Carbonic anhydrase 9 was found to be 0.61 nM.

Consider `COc1ccc(CC(=O)Nc2ccc(S(N)(=O)=O)cc2Cl)cc1`, for which the Ki at Carbonic anhydrase 9 was found to be 0.41 nM.

With `COc1ccc(CC(=O)Nc2ccc(S(N)(=O)=O)cc2)cc1`, the Ki at Carbonic anhydrase 9 is 0.32 nM.

As to `NS(=O)(=O)c1ccc(NC(=O)Cc2ccc(F)cc2)cc1`, the Ki at Carbonic anhydrase 9 is 4.7 nM.

Turning to `NS(=O)(=O)c1ccc(CCNC(=O)Cc2ccccc2Br)cc1`, the Ki on Carbonic anhydrase 9 stood at 0.57 nM.

With `NS(=O)(=O)c1ccc(NC(=O)Cc2ccc(Cl)cc2)c(F)c1`, the Ki at Carbonic anhydrase 9 worked out at 7.8 nM.

On to `NS(=O)(=O)c1ccc(NC(=O)Cc2ccc(F)cc2)c(Br)c1`, for which the Ki at Carbonic anhydrase 9 is 5 nM.

For the molecule `COc1ccc(CC(=O)Nc2ccc(S(N)(=O)=O)cc2Br)cc1`, the Ki on Carbonic anhydrase 9 is 0.62 nM.

On to `NS(=O)(=O)c1ccc(CNC(=O)Cc2ccc(Cl)cc2)cc1`, for which the Ki on Carbonic anhydrase 9 amounted to 0.53 nM.

As for `NS(=O)(=O)c1ccc(NC(=O)Cc2ccc(Cl)cc2)cc1`, the Ki on Carbonic anhydrase 9 was 72.5 nM.

As to `COc1ccc(CC(=O)NCc2ccc(S(N)(=O)=O)cc2)cc1`, the Ki at Carbonic anhydrase 9 turned out to be 0.45 nM.

In the case of `NS(=O)(=O)c1ccc(NC(=O)Cc2ccc(F)cc2)c(F)c1`, the Ki on Carbonic anhydrase 9 is 7.2 nM.

As to `NS(=O)(=O)c1ccc(NC(=O)Cc2ccc(Cl)cc2)c(Cl)c1`, at Carbonic anhydrase 9, the Ki stood at 6.3 nM.

With `NS(=O)(=O)c1ccc(CCNC(=O)Cc2ccc(Cl)cc2)cc1`, the Ki on Carbonic anhydrase 12 was determined as 3.4 nM; on Carbonic anhydrase 9 it was 1.2 nM.

On to `NS(=O)(=O)c1ccc(CCNC(=O)Cc2ccc(F)cc2)cc1`, for which the Ki at Carbonic anhydrase 9 is 6.5 nM.

Consider `NS(=O)(=O)c1ccc(NC(=O)Cc2ccccc2Br)cc1`, for which the Ki at Carbonic anhydrase 9 came out at 0.44 nM.

Consider `NS(=O)(=O)c1ccc(CNC(=O)Cc2ccccc2Br)cc1`, for which the Ki at Carbonic anhydrase 9 was determined as 1 nM.

With `NS(=O)(=O)c1ccc(NC(=O)Cc2ccccc2Br)c(Cl)c1`, the Ki on Carbonic anhydrase 9 is 0.74 nM.

`NS(=O)(=O)c1nnc(NC(=O)Cc2ccc(F)cc2)s1`: the Ki on Carbonic anhydrase 9 stood at 2.1 nM.

With `NS(=O)(=O)c1ccc(NC(=O)Cc2ccc(F)cc2)c(Cl)c1`, the Ki at Carbonic anhydrase 9 was found to be 10.1 nM.

Consider `NS(=O)(=O)c1ccc(NC(=O)Cc2ccc(Cl)cc2)c(Br)c1`, for which the Ki on Carbonic anhydrase 9 amounted to 1.2 nM.

Consider `NS(=O)(=O)c1ccc(NC(=O)Cc2ccccc2Br)c(Br)c1`, for which, on Carbonic anhydrase 9, the Ki was found to be 0.52 nM.

Take `COc1ccc(CC(=O)Nc2nnc(S(N)(=O)=O)s2)cc1`: the Ki at Carbonic anhydrase 9 came to 0.31 nM.

Take `COc1ccc(CC(=O)NCCc2ccc(S(N)(=O)=O)cc2)cc1`: the results for the Ki on Carbonic anhydrase 12 and at Carbonic anhydrase 9 were 0.43 nM and 0.25 nM, respectively.
